Laboratory results from ChEMBL document CHEMBL4270539, “Fibrogenic Disorders in Human Diseases: From Inflammation to Organ Dysfunction” (J Med Chem, 2018).

Columns and labels:
[1] = target: Sphingosine 1-phosphate receptor 2 (Homo sapiens, UniProt O95136); format: functional
[2] = target: Sphingosine 1-phosphate receptor 2 (Rattus norvegicus, UniProt P47752); format: functional
[3] = target: CREB-binding protein (Homo sapiens, UniProt Q92793)
Sequence of CREB-binding protein (Q92793 whole entry): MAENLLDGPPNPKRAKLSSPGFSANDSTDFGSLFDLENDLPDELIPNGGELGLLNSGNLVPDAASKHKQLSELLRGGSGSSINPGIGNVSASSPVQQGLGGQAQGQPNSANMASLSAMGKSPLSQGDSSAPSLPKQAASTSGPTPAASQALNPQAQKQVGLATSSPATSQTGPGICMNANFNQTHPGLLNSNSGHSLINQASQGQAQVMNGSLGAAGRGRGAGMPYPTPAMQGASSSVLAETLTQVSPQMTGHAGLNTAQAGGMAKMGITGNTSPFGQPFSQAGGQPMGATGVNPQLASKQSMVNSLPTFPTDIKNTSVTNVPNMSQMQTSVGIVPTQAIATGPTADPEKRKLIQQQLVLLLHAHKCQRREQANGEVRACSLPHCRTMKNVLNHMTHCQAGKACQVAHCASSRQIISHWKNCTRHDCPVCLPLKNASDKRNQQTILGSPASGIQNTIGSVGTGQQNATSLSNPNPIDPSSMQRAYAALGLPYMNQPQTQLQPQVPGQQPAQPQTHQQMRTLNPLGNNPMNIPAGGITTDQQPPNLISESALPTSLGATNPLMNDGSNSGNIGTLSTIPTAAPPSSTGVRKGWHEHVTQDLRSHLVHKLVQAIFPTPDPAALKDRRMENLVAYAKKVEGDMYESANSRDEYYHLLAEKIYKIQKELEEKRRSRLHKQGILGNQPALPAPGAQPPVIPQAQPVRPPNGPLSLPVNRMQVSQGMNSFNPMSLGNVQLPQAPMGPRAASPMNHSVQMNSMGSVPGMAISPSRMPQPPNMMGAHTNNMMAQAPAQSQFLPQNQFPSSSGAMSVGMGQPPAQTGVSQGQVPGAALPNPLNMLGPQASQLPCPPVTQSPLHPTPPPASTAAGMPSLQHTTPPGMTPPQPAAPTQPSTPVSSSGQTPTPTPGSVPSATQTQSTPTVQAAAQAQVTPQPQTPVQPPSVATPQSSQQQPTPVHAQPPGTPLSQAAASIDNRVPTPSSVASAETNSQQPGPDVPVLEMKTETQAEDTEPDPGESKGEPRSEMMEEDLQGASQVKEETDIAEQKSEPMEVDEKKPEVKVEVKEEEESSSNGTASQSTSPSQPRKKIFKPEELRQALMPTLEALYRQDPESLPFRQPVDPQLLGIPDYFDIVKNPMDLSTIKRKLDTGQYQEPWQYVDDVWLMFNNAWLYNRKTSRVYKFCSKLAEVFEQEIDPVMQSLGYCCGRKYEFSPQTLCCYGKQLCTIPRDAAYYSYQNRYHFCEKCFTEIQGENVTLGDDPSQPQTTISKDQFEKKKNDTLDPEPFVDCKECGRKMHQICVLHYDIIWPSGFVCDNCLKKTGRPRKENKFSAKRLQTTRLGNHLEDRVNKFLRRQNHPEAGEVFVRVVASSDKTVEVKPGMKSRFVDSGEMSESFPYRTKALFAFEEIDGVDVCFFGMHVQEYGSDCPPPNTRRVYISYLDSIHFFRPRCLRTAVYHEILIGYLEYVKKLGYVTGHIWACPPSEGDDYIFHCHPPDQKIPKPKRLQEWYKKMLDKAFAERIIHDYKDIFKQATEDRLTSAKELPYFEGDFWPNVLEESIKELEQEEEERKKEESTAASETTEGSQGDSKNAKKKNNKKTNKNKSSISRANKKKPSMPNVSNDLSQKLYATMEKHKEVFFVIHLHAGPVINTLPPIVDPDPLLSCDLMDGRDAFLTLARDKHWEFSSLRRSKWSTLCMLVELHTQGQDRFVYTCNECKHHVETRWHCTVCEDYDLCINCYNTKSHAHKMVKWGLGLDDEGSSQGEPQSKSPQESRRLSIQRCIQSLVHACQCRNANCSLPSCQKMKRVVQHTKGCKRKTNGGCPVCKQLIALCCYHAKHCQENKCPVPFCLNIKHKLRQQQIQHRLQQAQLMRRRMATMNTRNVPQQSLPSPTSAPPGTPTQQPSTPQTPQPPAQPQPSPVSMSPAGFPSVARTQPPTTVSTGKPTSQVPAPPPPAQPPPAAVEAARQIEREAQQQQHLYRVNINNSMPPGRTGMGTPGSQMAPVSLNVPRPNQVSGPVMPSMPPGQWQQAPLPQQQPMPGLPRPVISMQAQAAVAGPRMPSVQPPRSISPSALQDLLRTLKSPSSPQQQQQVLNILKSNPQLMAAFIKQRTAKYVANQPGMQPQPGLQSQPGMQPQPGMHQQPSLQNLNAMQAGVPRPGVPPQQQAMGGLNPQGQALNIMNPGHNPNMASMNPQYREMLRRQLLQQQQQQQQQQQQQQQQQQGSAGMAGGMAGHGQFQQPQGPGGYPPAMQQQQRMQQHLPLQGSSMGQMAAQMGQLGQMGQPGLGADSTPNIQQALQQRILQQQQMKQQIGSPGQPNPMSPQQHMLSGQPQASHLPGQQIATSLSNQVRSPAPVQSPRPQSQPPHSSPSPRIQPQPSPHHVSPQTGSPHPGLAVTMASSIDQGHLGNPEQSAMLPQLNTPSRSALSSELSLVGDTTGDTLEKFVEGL

Sequence of Sphingosine 1-phosphate receptor 2 (Rattus norvegicus, UniProt P47752) (P47752 whole entry): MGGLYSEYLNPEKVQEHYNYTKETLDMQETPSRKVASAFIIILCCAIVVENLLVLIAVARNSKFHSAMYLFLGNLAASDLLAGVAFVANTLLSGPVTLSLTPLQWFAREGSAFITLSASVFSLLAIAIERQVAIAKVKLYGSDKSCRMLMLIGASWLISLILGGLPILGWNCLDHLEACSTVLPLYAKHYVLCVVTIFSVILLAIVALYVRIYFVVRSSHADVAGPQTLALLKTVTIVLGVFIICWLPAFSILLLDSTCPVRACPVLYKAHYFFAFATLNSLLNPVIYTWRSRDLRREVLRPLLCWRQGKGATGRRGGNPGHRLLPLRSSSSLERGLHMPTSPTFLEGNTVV
Sequence of Sphingosine 1-phosphate receptor 2 (Homo sapiens, UniProt O95136) (O95136 whole entry): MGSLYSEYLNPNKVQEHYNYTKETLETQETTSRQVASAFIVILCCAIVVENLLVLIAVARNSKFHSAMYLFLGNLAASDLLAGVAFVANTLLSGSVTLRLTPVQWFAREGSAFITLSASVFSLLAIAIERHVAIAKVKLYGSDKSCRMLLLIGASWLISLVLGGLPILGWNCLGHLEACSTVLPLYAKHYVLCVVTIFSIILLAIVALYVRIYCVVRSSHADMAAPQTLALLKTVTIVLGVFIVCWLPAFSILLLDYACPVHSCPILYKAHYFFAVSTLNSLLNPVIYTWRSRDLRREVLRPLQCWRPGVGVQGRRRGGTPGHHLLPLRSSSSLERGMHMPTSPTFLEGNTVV

Compound	IC50 [1] [nM]	IC50 [2] [nM]	IC50 [3] [nM]
Cc1nn(C)c2nc(NNC(=O)Nc3cc(Cl)nc(Cl)c3)cc(C(C)C)c12	20	20	
O=C1[C@H](Cc2ccc(O)cc2)N2C(=O)CCN(C(=O)NCc3ccccc3)[C@H]2CN1Cc1cccc2ccccc12			3000
